Values quoted from earlier work, collected in patent US11081240B2, “Methods for treatment of hypertension with an angiotensin II receptor blocker pharmaceutical composition” (AstraZeneca UK Limited, priority 2018, dated 2021).

Assays:
[1] = treatment of hypertension; at least 5 double-blind, placebo-controlled, randomized studies
[2] = co-administration of a potassium supplement with a single oral dose
[3] = administered with a lithium medication

effect of a potassium supplement on the pharmacokinetics of the drug [2]: no significant effect
Structure (SMILES): CCOc1nc2cccc(C(=O)OCc3oc(=O)oc3C)c2n1Cc1ccc(-c2ccccc2-c2noc(=O)[nH]2)cc1 [azilsartan medoxomil]
efficacy to lower blood pressure [1]: has been demonstrated
serum lithium concentrations / lithium toxicity on co-administration [3]: increases in the serum lithium concentrations and/or lithium toxicity have been observed
